From US8829021B2, “Treatment of pediatric tumors” (Sigma-Tau Industrie Farmaceutiche Riunite S.p.A., priority 2007, dated 2014)
Several values for one entry are separate records, joined by “and”; a condition that tells them apart may be missing. Equal values may be shown once.

What was measured:
[1] = tested on: TE-671 (rhabdomyosarcoma); experiment: In vivo antitumoral activity, TE-671 rhabdomyosarcoma xenograft; parameters: species or system nude athymic mice (human tumor xenograft); conditions: 30 mg/kg i.v., q4dx4
Experimental: (§1) Exponentially growing tumor cells were injected s.c. into nude athymic mice. The number of tumor cells was previously chosen by a growth curve. […] Animals were housed under a light-dark cycle, keeping temperature and humidity constant. Parameters of the animal rooms were assessed as follows: 22±2° C. temperature, 55±10% relative humidity, about 15-20 filtered air changes/hour and 12 hour circadian cycle of artificial light (7 a.m., 7 p.m.). At request, the environmental conditions were monitored and the data are retained in Animal Housing Archives. Drinking water was supplied ad libitum. Each mouse was offered daily a complete pellet diet (GLP 4RF21, Mucedola) throughout the study. The analytical certificates of animal food and water are retained at Sigma-Tau premises. All animals were weighed before starting the experiment and were subdivided into the different dosage groups.
(§2) Tumor growth was followed by biweekly measurements of tumor diameters with a Vernier caliper. Tumor volume (TV, mm^3) was calculated as: [length (mm)×width (mm)^2]/2, where the width and the length are the shortest and the longest diameters of each tumor, respectively.
(§3) The efficacy of the drug treatment was assessed as tumor volume inhibition (TVI %) in treated versus control mice, calculated as: 100−[(mean tumor volume of treated animals/mean tumor volume of control animals)×100].

[2] = tested on: PFSK (primitive neuroectodermal tumors/PNET); experiment: In vivo antitumoral activity, PFSK primitive neuroectodermal tumor (PNET) xenograft; parameters: species or system nude athymic mice (human tumor xenograft); conditions: 30 mg/kg i.v., q4dx4
Experimental: as §1, §2, §3

SK-N-AS (neuroblastoma) = experiment: In vivo antitumoral activity, SK-N-AS neuroblastoma xenograft; parameters: species or system nude athymic mice (human tumor xenograft); conditions: SK-N-AS xenograft s.c. in nude mice; 30 mg/kg i.v., q4dx4
Experimental: as §1, §2, §3

[3] = tested on: human pediatric tumor xenograft models; experiment: In vivo antitumoral activity on different pediatric tumor xenograft models (overall); parameters: species or system nude athymic mice (human tumor xenograft); conditions: all models, compared with CPT-11; 30 mg/kg i.v., q4dx4
Experimental: (§4) The antitumor effect was evaluated against different human pediatric tumor models: SK-ND-AS (neuroblastoma); PSFK (primitive neuroectodermal tumors/PNET); TE-671 (rhabdomyosarcoma). ST 1968 was evaluated in comparison to CPT-11 (irinotecan) by intravenously delivery of 30 mg/10 ml/kg for ST1968 and 50 mg/10 ml/kg for CPT-11 according to the schedule q4dx4.
(§5) Exponentially growing tumor cells were injected s.c. into nude athymic mice. The number of tumor cells was previously chosen by a growth curve. Mice were housed inside cages of makrolon (33.2×15×13 cm) with stainless steel cover-feed and sterilized and dust-free bedding cobs. Animals were housed under a light-dark cycle, keeping temperature and humidity constant. Parameters of the animal rooms were assessed as follows: 22±2° C. temperature, 55±10% relative humidity, about 15-20 filtered air changes/hour and 12 hour circadian cycle of artificial light (7 a.m., 7 p.m.). At request, the environmental conditions were monitored and the data are retained in Animal Housing Archives. Drinking water was supplied ad libitum. […]
Tumor growth was followed by biweekly measurements of tumor diameters with a Vernier caliper. Tumor volume (TV, mm^3) was calculated as: [length (mm)×width (mm)^2]/2, where the width and the length are the shortest and the longest diameters of each tumor, respectively. […]

[4] = Toxicity of the drug treatments in tumor-bearing mice; type: in vivo, nude athymic mice; conditions: treatment i.v., q4dx4
Experimental: as §4, §5
The toxicity of the drug treatments was determined as: body weight loss percent (% BWL max)=100−(mean BWday x/mean BWday 1×100), where BWx is the mean BW at the day of maximal loss during the treatment and BW1 is the mean BW on the 1st day of treatment.

Structure (SMILES): CC[C@@]1(O)C(=O)OCc2c1cc1n(c2=O)Cc2c-1nc1ccccc1c2/C=N\OCCN [ST1968, 7-(2-amino)ethoxyiminomethylcamptothecin]
- TVI % (tumor volume inhibition) ([1]; TE-671 xenograft s.c. in nude mice, 30 mg/kg): 100% and 99%
- complete responses (in words) ([1]; rhabdomyosarcoma model): high rate of complete responses
- TVI % (tumor volume inhibition) ([2]; PFSK xenograft s.c. in nude mice, 30 mg/kg): 99% and 100%
- complete responses (in words) ([2]; PNET model): high rate of complete responses
- TVI % (tumor volume inhibition) (SK-N-AS (neuroblastoma)): 98%
- antitumor activity / complete tumor regressions (in words) [3]: appreciable rate of complete tumor regressions in all models
- tolerability / signs of acute or delayed toxicity (in words) [4]: generally well tolerated by mice with no signs of acute or delayed toxicity
